According to publication PMC3966047, “Analysis of the minimal specificity of caspase-2 and identification of Ac-VDTTD-AFC as a caspase-2-selective peptide substrate” (Bioscience Reports, 2014):
“Also recorded” adds a separate entry of the source. Like-named read-outs stand apart in the source and are kept apart here. Each block holds one substance with its values, some of them ahead of it. The star is where a group is joined. AFC = O=c1cc(C(F)(F)F)c2ccc(N*)cc2o1; pNA = O=[N+]([O-])c1ccc(N*)cc1

Experiments:
caspase-3 [1] = target: T1, caspase-3 (Homo sapiens, UniProt P42574); assay: Runx1 cleavage by caspase-3 (anti-His6 immunoblot); format: biochemical; settings: 100 nM in vitro-translated Runx1, 1 h, 37°C
T1 construct: made in house; host or cells: E. coli BL21(DE3)pLysS
T1 sequence (P42574 29-175 limits assumed): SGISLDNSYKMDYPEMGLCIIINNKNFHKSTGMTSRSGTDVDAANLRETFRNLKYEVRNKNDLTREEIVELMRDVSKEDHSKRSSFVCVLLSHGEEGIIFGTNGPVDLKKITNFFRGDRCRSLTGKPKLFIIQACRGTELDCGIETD
T1 sequence (P42574 176-277 limits assumed): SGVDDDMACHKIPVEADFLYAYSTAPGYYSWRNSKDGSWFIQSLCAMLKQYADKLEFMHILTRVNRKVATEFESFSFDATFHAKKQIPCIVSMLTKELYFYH
Protocol: (§1) Caspases-2, -3 and -8 were purified using NiNTA resin (Qiagen) from BL21(DE3)pLysS bacteria (Novagen/Merck) transformed with pET23a–caspase-2^Δ1−149 [44], pET23a–caspase-3 [54] or pET15b–caspase-8^Δ1−216 plasmids. Induction conditions were: caspase-2, 0.4 mM IPTG (isopropyl β-D-thiogalactoside), 2 h 37°C; caspase-3, 0.2 mM IPTG, 3 h 30°C; caspase-8, 1 mM IPTG, 4 h 25°C. Caspases were active site-titrated using zVAD-fmk (Merck). ArcticExpress DE3 bacteria (Agilent Technologies) were transformed with the pET23a Bid expression plasmids described above, induced for 48 h at 10°C using 1 mM IPTG, then the His6-tagged Bid proteins were purified using NiNTA resin (Qiagen). Recombinant proteins were quantitated using the Bicinchoninic acid protein assay kit (Sigma). […] The concentration of Runx1 proteins was determined by quantitative anti-His6 immunoblotting, using purified AcP35–His6 [56] as a standard.
(§2) Caspases were pre-activated for 30 min at 37°C in their preferred buffers, then diluted and mixed with fluorogenic peptide substrates. Fluorescence (excitation 410 nm, emission 500 nm) was measured every 10–60 s for up to 1 h using a FluoStar Galaxy (BMG Labtech). The maximal slope of each curve was calculated. A standard curve, using free AFC (Sigma), was used to convert fluorescence emissions into concentration of AFC produced during the cleavage reactions. […]

caspase-8 = assay: Runx1 cleavage by caspase-8 (anti-His6 immunoblot); format: biochemical; settings: 100 nM in vitro-translated Runx1, 1 h, 37°C
Protocol: as §1, §2

caspase-2 [2] = assay: Runx1 cleavage by caspase-2 (anti-His6 immunoblot); format: biochemical; settings: 100 nM in vitro-translated Runx1, 1 h, 37°C
Protocol: as §1, §2

caspase-2 [3] = settings: cited from earlier work
Excerpt: (§3) Some of the confusion regarding the function of caspase-2 may stem from researchers’ use of non-specific tools for monitoring its activity and inhibition. […] Subsequent studies have confirmed the lack of specificity associated VDVAD-based tools, yet many researchers continue to employ substrates and inhibitors derived from this peptide sequence as c ...

caspase-3 [4] = target: T1, caspase-3; settings: compared with caspase-2; cited from earlier work
Excerpt: as §3

[5] = system: auto-activating caspase-3 in HEK-293T cell lysate; assay: Fluorogenic peptide cleavage by lysates of HEK-293T cells expressing auto-activating caspase-3; format: biochemical, human embryonic kidney cells; settings: for cleavage by lysates of cells expressing caspase-3 (in words): HEK-293T lysate, auto-activating caspase-3, 0.1 mM substrate, rate of fluorescence increase, three independent transfections
Protocol: (§4) Caspases were pre-activated for 30 min at 37°C in their preferred buffers, then diluted and mixed with fluorogenic peptide substrates. Fluorescence (excitation 410 nm, emission 500 nm) was measured every 10–60 s for up to 1 h using a FluoStar Galaxy (BMG Labtech). The maximal slope of each curve was calculated. A standard curve, using free AFC (Sigma), was used to convert fluorescence emissions into concentration of AFC produced during the cleavage reactions. Prism 5.0 software was used to determine kcat and KM from three to four independent experiments, as previously described. Ac-DEVD-AFC and Ac-VDVAD-AFC were purchased from Enzo Life Sciences. The custom substrates Ac-VDTTD-AFC and Ac-VDVPD-AFC were synthesized by 21st Century Biochemicals. 150 nM Bid or 100 nM Runx1 proteins were incubated with specified concentrations of caspases in their preferred buffers for 1 h (Runx1) or 0.5 h (Bid variants) at 37°C, then subjected to SDS–PAGE and immunoblotting with anti-Bid (#AF860 R&D Systems) or anti-His6 antibodies (#A00186 GenScript). Secondary antibodies were anti-mouse-HRP (#A9044, Sigma) or anti-goat-HRP (#6300-05, Southern Biotech). The SuperSignal West Dura Substrate (Thermo Scientific) was used to detect signals and quantitation of sub-saturated exposures was performed using a Syngene G:Box and Image Lab 3.0 software (BioRad). Linear regression was used to determine the caspase concentration, which cleaved half of each protein.
(§5) HEK-293T cells [human embryonic kidney cells expressing the large T-antigen of SV40 (simian virus 40)] were cultured, transfected, harvested and lysed as described except that protease inhibitors were not used. Each lysate was mixed with the appropriate fluorogenic substrate (0.1 mM) in caspase buffer, and fluorescence was monitored as outlined above.

[6] = system: auto-activating caspase-2 in HEK-293T cell lysate; assay: Fluorogenic peptide cleavage by lysates of HEK-293T cells expressing auto-activating caspase-2; format: biochemical, human embryonic kidney cells; settings: for caspase-2 versus caspase-3 selectivity in cell lysates (in words): HEK-293T lysates with auto-activating caspase-2 or -3, 0.1 mM substrate
Protocol: as §4, §5

caspase-3 [7] = target: T1, caspase-3; assay: Fluorogenic peptide cleavage by purified caspase-3 (AFC release); format: biochemical
Protocol: (§6) Caspases-2, -3 and -8 were purified using NiNTA resin (Qiagen) from BL21(DE3)pLysS bacteria (Novagen/Merck) transformed with pET23a–caspase-2^Δ1−149 [44], pET23a–caspase-3 [54] or pET15b–caspase-8^Δ1−216 plasmids. Induction conditions were: caspase-2, 0.4 mM IPTG (isopropyl β-D-thiogalactoside), 2 h 37°C; caspase-3, 0.2 mM IPTG, 3 h 30°C; caspase-8, 1 mM IPTG, 4 h 25°C. Caspases were active site-titrated using zVAD-fmk (Merck). ArcticExpress DE3 bacteria (Agilent Technologies) were transformed with the pET23a Bid expression plasmids described above, induced for 48 h at 10°C using 1 mM IPTG, then the His6-tagged Bid proteins were purified using NiNTA resin (Qiagen). Recombinant proteins were quantitated using the Bicinchoninic acid protein assay kit (Sigma). Runx1 proteins were synthesized using the TNT T7 quick coupled transcription/translation system (Promega) with non-radioactive methionine, using intact Runx1–pET23a plasmids as templates. The concentration of Runx1 proteins was determined by quantitative anti-His6 immunoblotting, using purified AcP35–His6 [56] as a standard.
as §4, with “150 nM Bid or 100 nM Runx1 proteins were incubated with specified concentrations of caspases in their preferred buffers for 1 h (Runx1) or 0.5 h (Bid variants) at 37°C, then subjected to SDS–PAGE and immunoblotting with anti-Bid (#AF860 R&D Systems) or anti-His6 antibodies (#A00186 GenScript). Secondary antibodies were anti-mouse-HRP (#A9044, Sigma) or anti-goat-HRP (#6300-05, Southern Biotech).” left out, “Linear regression was used to determine the caspase concentration, which cleaved half of each protein.” left out

caspase-2 [8] = assay: Fluorogenic peptide cleavage by purified caspase-2 (AFC release); format: biochemical
Protocol: as §6, §4

Runx1 cleavage by caspase-3 (in words) (caspase-3 [1]): yielded a larger product | Runx1 cleavage by caspase-8 (in words) (caspase-8): yielded a larger product | Runx1 cleavage by caspase-2 (in words) (caspase-2 [2]): yielded a larger product
Substance: Runx1^DVPG: P1 mutant of Runx1

Substance: Ac-VDVAD-pNA
cleavage by caspase-2 (in words) (caspase-2 [3]): could efficiently cleave peptides containing the sequence VDVAD | cleavage by caspase-3 (in words) (caspase-3 [4]): caspase-3 could cleave these peptides with similar kinetics

Substance: Ac-DEVD-AFC [reference compound]
cleavage by lysates of cells expressing caspase-3 (in words) [5]: extracts from cells expressing active caspase-3 cleaved Ac-DEVD-AFC most efficiently

Substance: Ac-VDVAD-{AFC} [classical caspase-2 substrate, purchased from Enzo Life Sciences, reference compound]
caspase-2 versus caspase-3 selectivity in cell lysates (in words) [6]: cleaved only slightly better by extracts from cells expressing caspase-2 than caspase-3

cleavage efficiency relative to Ac-VDVAD-AFC (caspase-3) (caspase-3 [7]; fold versus Ac-VDVAD-AFC): 1.7 times | cleavage efficiency relative to Ac-VDVAD-AFC (caspase-2) (caspase-2 [8]; purified caspase-2, fold versus Ac-VDVAD-AFC): four
Substance: Ac-VDTTD-{AFC} [custom fluorogenic substrate synthesized by 21st Century Biochemicals]
cleavage by caspase-3 (in words) (caspase-3 [7]): only cleaved it slightly more efficiently than Ac-VDVAD-AFC | cleavage by lysates of cells expressing caspase-3 (in words) [5]: proteolysed by lysates containing caspase-3, but at a slower rate than by lysates from cells expressing caspase-2 | DEVDase activity relative to VDTTDase activity ([5]; cells expressing active caspase-3, Ac-DEVD-AFC versus Ac-VDTTD-AFC, 0.1 mM substrate): 3.3 times | cleavage by caspase-2 (in words) (caspase-2 [8]; purified caspase-2): efficiently cleaved by purified caspase-2 | selectivity for caspase-2 relative to caspase-3 (in words) (caspase-2 [8]; purified caspases-2 and -3): better selectivity for caspase-2 relative to caspase-3 than reagents that are currently available; also recorded: exhibits enhanced caspase-2 sensitivity and specificity, relative to Ac-VDVAD-AFC | cleavage by lysates of cells expressing caspase-2 (in words) ([6]; HEK-293T lysate, auto-activating caspase-2, 0.1 mM substrate, rate of fluorescence increase, three independent transfections): efficiently cleaved by purified caspase-2 and auto-activating caspase-2 in mammalian cells; also recorded: lysates from cells expressing active caspase-2 cleaved Ac-VDTTD-AFC more efficiently than the other peptides | caspase-2 versus caspase-3 selectivity in cell lysates (in words) [6]: significantly more selective for caspase-2 than the commonly used Ac-VDVAD-AFC peptide; also recorded: does not offer this degree of specificity | VDTTDase activity relative to DEVDase activity ([6]; lysates from cells expressing caspase-2, background activity in vector transfectant lysates subtracted, 0.1 mM substrate): ~14 times
